Laboratory results published in ChEMBL document CHEMBL1148072, “Ellagitannins and complex tannins from Quercus petraea bark” (J Nat Prod, 1994).

tested on: Blood; assay: Astringency in human blood by heme-analysis relative to tannin; type: functional

Going from O=C1OC[C@H]2OC(=O)c3cc(O)c(O)c(O)c3-c3c(O)c(O)c(O)c4c3C(=O)O[C@H]([C@@H]3OC(=O)c5c-4c(O)c(O)c(O)c5[C@@H]3c3c(O)cc(O)c4c3O[C@H](c3ccc(O)c(O)c3)[C@@H](O)C4)[C@H]2OC(=O)c2cc(O)c(O)c(O)c2-c2c1cc(O)c(O)c2O [ACUTISSIMIN A] to O=C1OC[C@H]2OC(=O)c3cc(O)c(O)c(O)c3-c3c(O)c(O)c(O)c4c3C(=O)O[C@H]([C@@H]3OC(=O)c5c-4c(O)c(O)c(O)c5[C@@H]3c3c(O)cc(O)c4c3O[C@H](c3cc(O)c(O)c(O)c3)[C@@H](O)C4)[C@H]2OC(=O)c2cc(O)c(O)c(O)c2-c2c1cc(O)c(O)c2O [EUGENIGRANDIN A], the Activity rises from 0.28 to 0.46.

Going from O=C1OC[C@H]2OC(=O)c3cc(O)c(O)c(O)c3-c3c(O)c(O)c(O)c4c3C(=O)O[C@H]([C@@H]3OC(=O)c5c-4c(O)c(O)c(O)c5[C@@H]3c3c(O)cc4c(c3O)C[C@H](O)[C@@H](c3cc(O)c(O)c(O)c3)O4)[C@H]2OC(=O)c2cc(O)c(O)c(O)c2-c2c1cc(O)c(O)c2O [GUAJAVIN B] to O=C1OCC2OC(=O)c3cc(O)c(O)c(O)c3-c3c(O)c(O)c(O)c4c3C(=O)OC(C2OC(=O)c2cc(O)c(O)c(O)c2-c2c1cc(O)c(O)c2O)C1OC(=O)c2c-4c(O)c(O)c(O)c2C1O (stereo unspecified) [VESCALAGIN], the Activity falls from 0.44 to 0.24.

Work on O=C1OC[C@H]2OC(O)[C@@H]3OC(=O)c4cc(O)c(O)c(O)c4-c4c(cc(O)c(O)c4O)C(=O)O[C@H]3[C@@H]2OC(=O)c2cc(O)c(O)c(O)c2-c2c1cc(O)c(O)c2O (stereo partly specified) [PEDUNCULAGIN] yielded an Activity of 0.2.

tested on: Caenorhabditis elegans; assay: Anthelmintic activity against Caenorhabditis elegans; type: functional, organism-based

COC(=O)Nc1nc2cc(C(=O)c3ccccc3)ccc2[nH]1 [MEBENDAZOLE] was tested, and the IC50 was 10 ppm.
